Source: PubChem BioAssay (NCI)
Values joined by “and” are separate entries in the source; they are usually repeats but may differ in a detail not shown here. Equal values may be shown once.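 Five compound concentrations were applied to cells in 96-well plates for 48 hours; endpoints were derived by simple linear interpolation of the resulting dose-response curve. GI50 = concentration required for 50% inhibition of growth. TGI: total growth inhibition.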

Legend:
Test in all cases: NCI-60 cell line screen, 48 h
EKVX NSCLC = tested on: EKVX NSCLC
HCT-116 colon = tested on: HCT-116 colon
HOP-92 NSCLC = tested on: HOP-92 NSCLC
IGROV1 ovarian = tested on: IGROV1 ovarian
M14 melanoma = tested on: M14 melanoma
MCF7 breast = tested on: MCF7 breast
OVCAR-8 ovarian = tested on: OVCAR-8 ovarian
RXF 393 renal = tested on: RXF 393 renal
SF-539 CNS = tested on: SF-539 CNS
T-47D breast = tested on: T-47D breast

SMILES | GI50 (EKVX NSCLC) | TGI (EKVX NSCLC) | GI50 (HCT-116 colon) | TGI (HCT-116 colon) | GI50 (HOP-92 NSCLC) | TGI (HOP-92 NSCLC) | GI50 (IGROV1 ovarian) | TGI (IGROV1 ovarian) | GI50 (M14 melanoma) | TGI (M14 melanoma) | GI50 (MCF7 breast) | TGI (MCF7 breast) | GI50 (OVCAR-8 ovarian) | TGI (OVCAR-8 ovarian) | GI50 (RXF 393 renal) | TGI (RXF 393 renal) | GI50 (SF-539 CNS) | TGI (SF-539 CNS) | GI50 (T-47D breast) | TGI (T-47D breast)
O=S(=O)(Nc1ccccc1Cl)c1ccc(-c2cnc(C3CC3)o2)cc1 | 4350 nM | > 89100 nM | 401 nM | > 75500 nM | 324 nM | 7280 nM | 680 nM | > 100000 nM | 279 nM | > 100000 nM | 284 nM | > 100000 nM | 1220 nM | > 100000 nM | 266 nM | 1180 nM | 332 nM | 2330 nM | 464 nM | > 54700 nM
C=C1C(=O)O[C@@H]2C[C@@H](C)[C@@H]3C=CC(=O)[C@@]3(C)[C@@H](OC(=O)CC(=O)O[C@H]3[C@@H]4C(=C)C(=O)O[C@@H]4C[C@@H](C)[C@@H]4C=CC(=O)[C@]43C)[C@H]12 | – | 320 nM | – | 39.8 nM | – | 74.6 nM | – | 595 nM | – | 84.5 nM | – | 210 nM | – | 59.1 nM | – | 25.8 nM | – | 78.1 nM | – | 2730 nM
COc1ccc2c(C)cc(N/N=C/c3ccc(OC)c4ccccc34)nc2c1 | – | 35100 nM | – | 18100 nM | – | 25400 nM | – | 29300 nM | – | 31900 nM | – | 44600 nM | – | 39600 nM | – | 39800 nM | – | 30600 nM | – | 24100 nM
COc1cccc(-c2nc3sccn3c2-c2ccnc(NCCCNS(=O)(=O)c3cccc(F)c3)c2)c1 | 2990 nM | > 100000 nM | 2830 nM | > 100000 nM | 1520 nM | > 100000 nM | 2390 nM | 9770 nM | 2350 nM | 6050 nM | 2490 nM | > 100000 nM | 2420 nM | 18900 nM | 2470 nM | > 100000 nM | 3870 nM | > 100000 nM | 1240 nM | 4930 nM
Cc1ccc(S(=O)(=O)NC(=O)C2C(=O)CC3(CCCCC3)CC2=O)cc1 | – | 61900 nM | – | 74400 nM | – | 45600 nM | – | 71100 nM | – | > 100000 nM | – | 55700 nM | – | 87100 nM | – | > 100000 nM | – | 77500 nM | – | > 100000 nM
COc1cc(NC(N)=NCCC(C)(C)Oc2ccc(C(F)(F)F)cc2)ncc1C#N | 1450 nM | 2850 nM | 1460 nM | 2830 nM | 1380 nM | 2800 nM | 1800 nM | 3480 nM | 1620 nM | 3110 nM | 1610 nM | 3180 nM | 1790 nM | 3540 nM | 1680 nM | 3110 nM | 1800 nM | 3260 nM | 1560 nM | 3290 nM
CCCN(CCCC(NC(C)=O)C(=O)NCc1ccccc1)C(=O)N(CCCl)N=O (stereo not given) | – | 59000 nM | – | 29000 nM | – | 46600 nM | – | 57300 nM | – | 31700 nM | – | > 100000 nM | – | 12700 nM | – | 35000 nM | – | 5950 nM | – | > 100000 nM
COc1ccc(-c2cc(=O)c3ccc(C)nc3[nH]2)cc1 | – | > 100000 nM | > 100000 nM | > 100000 nM | – | > 100000 nM | – | > 100000 nM | – | > 100000 nM | – | > 100000 nM | – | > 100000 nM | – | > 100000 nM | – | > 100000 nM | – | > 100000 nM
CCOC(=O)c1sc(-c2ccc(OS(=O)(=O)c3ccc(Br)s3)c(C=O)c2)nc1C | 14300 nM | 54100 nM | 1890 nM | 3950 nM | 2080 nM | 6870 nM | 3310 nM | 12700 nM | 3220 nM | 11300 nM | 2860 nM | 8970 nM | 3260 nM | 16500 nM | 2810 nM | 13500 nM | 2430 nM | 6160 nM | 2770 nM | 12100 nM
Clc1nc(Cl)c2ncn(Cc3cccc(Cn4cnc5c(Cl)nc(Cl)nc54)c3)c2n1 | 3090 nM | 11000 nM | 2450 nM | 6280 nM | 6130 nM | 22400 nM | 7330 nM | 20200 nM | 2770 nM | 7650 nM | 3660 nM | 37400 nM | 4670 nM | 18600 nM | 1920 nM | 3720 nM | 1390 nM | 3130 nM | 3010 nM | 8430 nM
Cc1cc(=O)oc2cc(OC(=O)N(C)C)c(Cl)cc12 | – | > 100000 nM | – | > 100000 nM | – | > 100000 nM | – | > 100000 nM | – | > 100000 nM | – | > 100000 nM | – | > 100000 nM | – | 41500 nM | – | > 100000 nM | – | > 100000 nM
CC(C)(C)C(=O)c1c(C(F)(F)F)n([O-])c2ccccc2[n+]1=O | 757 nM | 2300 nM | 619 nM | 1590 nM | 573 nM | 1930 nM | 50.5 nM | 172 nM | 1450 nM | 4850 nM | 421 nM | 2030 nM | 254 nM | 1350 nM | 868 nM | 2280 nM | 846 nM | 2370 nM | 597 nM | 1780 nM
FC(F)c1nc2ccccc2n1-c1nc(N2CCOCC2)nc(N2CCOCC2)n1 | 445 nM | 4880 nM | 618 nM and 734 nM | > 100000 nM | 48.6 nM and 54.8 nM | 382 nM and 551 nM | 62.1 nM and 165 nM | 369 nM and 593 nM | 566 nM and 464 nM | – | 136 nM and 129 nM | > 62700 nM | 639 nM and 492 nM | > 100000 nM | 96.4 nM and 138 nM | 625 nM and 674 nM | 382 nM and 457 nM | 2290 nM and 3520 nM | 50.2 nM and 110 nM | 388 nM and 565 nM
